Laboratory results reported in patent US4668677A, “4-phenylphthalazine derivatives, their preparation and their use as pharmaceuticals” (Mitsubishi Chemical Industries Limited, priority 1984, dated 1987).

Assays:
blood platelets [1] = assay: Activity to inhibit the blood platelet adhesion (glass bead method); format: cell-based, rat (male Wistar-ST strain); details: Rattus norvegicus, read-out: Inhibitory rate of blood platelet adhesion
Protocol: As experimental animals, there were used male Wistar-ST strain rats of an average body weight of 250 g.
Blood samples were obained from carotid arteries by means of a cannule and immediately admixed with sodium citrate at a volume ratio of 1/10. The mixture was centrifuged at 200×g over 15 minutes to collect the supernatant (platelet-rich plasma: PRP). The PRP was then centrifuged at 2000×g over 15 minutes and the supernatant was removed to give blood platelet pellet.
To the resultant blood platelet pellet was added a 15 mM tris.HCl buffer solution with EDTA (pH 7.4) to resuspend blood platelets therein and then one applied centrifugation at 2000×g over 15 minutes and the supernatant was removed. The resultant washed blood platelets were added to a 0.3 mM tris.HCl buffer solution with CaCl2 (pH 7.4) to resuspend blood platelets therein, whereby there was prepared a blood platelet suspension adjusted to five hundred thousand platelets/μl. To 2 ml of the blood platelet suspension were added 2 μl of a methanolic solution of each test compound and incubation was effected for 15 minutes. Then blood platelet adhesion was determined according to a glass bead method by using a timing blood suction apparatus for determining the blood platelet adhesion.
The number of blood platelets was counted by means of a blood platelet counter.
Inhibitory rate of blood platelet adhesion was calculated according to the following equation: [formula] A: Blood platelet number in the blood platelet suspension passed through a control column
B: Blood platelet number in the blood platelet suspension passed through a bead-packing column

blood flow = details: Prostaglandins, 25, 549 (1983); cited from earlier work
mice = assay: Anti-thrombotic activity: arachidonic acid-induced mortality in mice; format: in vivo, mouse (male ICR-JCL strain); details: for Survival time of dead mice: arachidonic acid 100 mg/Kg i.v.; for Mortality: arachidonic acid 100 mg/Kg i.v. after 1 hour
Protocol: Male ICR-JCL strain mice with an average body weight of about 25 g and male New Zealand White rabbits with an average body weight of about 3 Kg were used.
Where mice were used as experimental animals, a suspension of the test compound indicated in Table 3 in a 1% tragacanth aqueous solution was orally administered to animals at 20 ml/Kg. One hour after the administration, an arachidonic acid (PL-biochemical Co., Inc.) solution dissolved in a 0.1M sodium carbonate aqueous solution was intravenously given at 100 mg/Kg. Evaluation of activity was effected with the time from the administration of arachidonic acid up to the death of animals as well as mortality.

blood platelet = details: Drugs, 18, 439 (1979); cited from earlier work
blood platelets [2] = assay: Activity to inhibit the aggregation of blood platelets (collagen, ex vivo after oral administration); format: in vivo, rat (male Wistar-ST strain); details: Rattus norvegicus, Platelet, po, read-out: Inhibitory rate of blood platelet aggregation
Protocol: Male Wistar-ST strain rats of an average body weight of 250 g were used, a group consisting of 8 animals. The test compound indicated in the following Table 1 was orally administered to rats in the form of a suspension in a 1% tragacanth aqueous solution at 4 ml/Kg (the test compound 10 mg/Kg).
One hour after the administration, blood samples were obtained from the carotid artery by means of a cannule. […] Tubes were turned upside-down and then subjected to centrifugation at 200×g over 15 minutes to assign the supernatant as a platelet-rich plasma (PRP). The residue was further centrifuged at […] over 15 minutes to assign the supernatant as a platelet-poor plasma (PPP). These supernatants were applied for determining the ability to aggregate blood platelets. […] As an aggregation inducing agent, collagen (availale from Hormon-chemie A.G.) was used at a concentration of 7 to 10 μg/ml.
Inhibitory rate to aggregate blood platelets was calculated according to the following equation: [formula] A: […] in the group to which the 1% tragacanth solution alone was given (Control)
B: Aggregation rate in the group to which the tragacanth solution of the test compound was given.

[3] = test system: PGI2-like substance in vessel walls; assay: Influence on production of PGI2-like substance in vessel walls (ADP aggregation with carotid artery ring); format: in vivo, rat (male Wistar-ST strain); details: for Aggregation rate with ADP when carotid artery ring added: 1 hour, 10 μM ADP
Protocol: Male Wistar-ST strain rats with an average weight of about 250 g were used as experimental animals. After fasted for 18 hours, 6.3 ml of blood sample were obtained from corotid artery and immediately thereafter 0.7 ml of an anticoagulant (3.8% sodium citrate) was added and the sample was centrifuged at 200×g over 15 minutes to take platelet-rich plasma (PRP). The same procedures as above were carried out, using 5 to 6 rats, whereby 5-6 ml as normal PRP were stored and employed.
Reference aggregation values were determined by pouring 1 ml each of stored PRP into plastic test tubes, incubating them at 22° C. for 10 minutes and then determining aggregation rate. As an aggregation inducing agent, one employed 10 μM ADP (available from Sigma Co., Inc.)
A suspension of the compound of this invention or aspirin in a 1% aqueous solution of tragacanth was orally given to animals. After 1 hour, 5 mg of carotid artery were cut out in a ring shape and placed into a plastic test tube together with 1 ml of stored PRP. After incubated at 22° C. for 10 minutes, aggregation rate was determined.
Also, non-medicated groups were similarly treated and aggregation rate was determined.
Determination of blood platelet aggregation rate was made by means of an aggregometer.

brain = details: Am. J. Physiol., 243, H416 (1982); cited from earlier work

SMILES	inhibition at 300 µM (blood platelets [1]; 3·10^-4 M)	inhibition at 30 µM (blood platelets [1]; 3·10^-5 M)	inhibition at 3 µM (blood platelets [1]; 3·10^-6 M)	inhibition at 0.3 µM (blood platelets [1]; 3·10^-7 M)	activity to increase blood flow (in words) (blood flow)	Survival time of dead mice (mice; 100 mg/Kg oral)	Mortality (mice; 100 mg/Kg oral)	Survival time of dead mice (mice; 300 mg/Kg oral)	Mortality (mice; 300 mg/Kg oral)	activity to inhibit blood platelet aggregation (in words) (blood platelet)	inhibition at 30 mg/kg (blood platelets [2])	inhibition at 100 mg/kg (blood platelets [2])	Aggregation rate with ADP when carotid artery ring added ([3]; 30 mg/Kg oral)	Aggregation rate with ADP when carotid artery ring added ([3]; 100 mg/Kg oral)	inhibition of ADP aggregation with PGI2-like substances existing in carotid artery ring (in words) ([3]; from Table 5)	topical blood flow in brain (in words) (brain)
CC(=O)Oc1ccccc1C(=O)O [Aspirin, aspirin]	4%	5.3%	8.4%	3.5%	does not show at all the activity to increase blood flow	322 ± 103 s	100%	180 ± 67 s	37.5%	show the activity to inhibit blood platelet aggregation	67.5%	100%	45.7%	58.3%	said phenomena could not be observed	
COc1ccc2c(c1)c(CC(=O)O)c(C)n2C(=O)c1ccc(Cl)cc1 [indomethacin]					does not show at all the activity to increase blood flow					show the activity to inhibit blood platelet aggregation						did decrease a topical blood flow in brain
